PubChem BioAssay (NCI)
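Following 48 hours of exposure in 96-well plates, responses at five concentrations were used to interpolate endpoints linearly. At the GI50, growth is halved. Definition used: TGI = concentration required for complete inhibition of growth.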

Assays:
Assay in all cases: NCI tumour cell line growth inhibition, 48 h
HCT-116 colon = test system: HCT-116 colon
HCT-15 colon = test system: HCT-15 colon
NCI-H226 lung = test system: NCI-H226 lung
OVCAR-3 ovarian = test system: OVCAR-3 ovarian
OVCAR-8 ovarian = test system: OVCAR-8 ovarian
SK-MEL-2 melanoma = test system: SK-MEL-2 melanoma
SK-OV-3 ovarian = test system: SK-OV-3 ovarian
U251 CNS = test system: U251 CNS
MCF7 breast = test system: MCF7 breast
PC-3 prostate = test system: PC-3 prostate

Structure (SMILES)	TGI (HCT-116 colon)	TGI (HCT-15 colon)	TGI (NCI-H226 lung)	TGI (OVCAR-3 ovarian)	TGI (OVCAR-8 ovarian)	TGI (SK-MEL-2 melanoma)	TGI (SK-OV-3 ovarian)	TGI (U251 CNS)	TGI (MCF7 breast)	TGI (PC-3 prostate)	GI50 (HCT-116 colon)	GI50 (HCT-15 colon)	GI50 (MCF7 breast)	GI50 (NCI-H226 lung)	GI50 (OVCAR-3 ovarian)	GI50 (PC-3 prostate)	GI50 (SK-MEL-2 melanoma)	GI50 (SK-OV-3 ovarian)	GI50 (U251 CNS)	GI50 (OVCAR-8 ovarian)
O=[N+]([O-])c1ccc(COc2cccc3cccnc23)cc1	> 100 µM	25.7 µM	95.4 µM	> 100 µM	> 100 µM	> 100 µM	> 100 µM	> 100 µM	–	–	–	–	–	–	–	–	–	–	–	–
COC[C@@H](N=CN1CCc2cc(OC)c(OC)cc2C1)C(C)(C)C	> 100 µM	> 100 µM	> 100 µM	> 100 µM	> 100 µM	–	> 100 µM	> 100 µM	–	–	–	–	–	–	–	–	–	–	–	–
Cc1ccc(C)c2c(N=Nc3ccccc3[N+](=O)[O-])c(O)[nH]c12	> 100 µM	> 100 µM	–	> 100 µM	–	> 100 µM	> 100 µM	> 100 µM	> 100 µM	> 100 µM	–	–	–	–	–	–	–	–	–	–
Cc1ccc(S(=O)(=O)SCc2ccccc2)cc1	26.4 µM	28.6 µM	40.9 µM	45.5 µM	33.4 µM	> 75.6 µM	> 95.9 µM	58.8 µM	–	–	–	–	–	–	–	–	–	–	–	–
Cc1ccc2c(CC(=O)O)cc(=O)oc2c1	> 100 µM	> 100 µM	> 100 µM	> 100 µM	> 100 µM	> 100 µM	> 100 µM	> 100 µM	–	–	–	–	–	–	–	–	–	–	–	–
Clc1ccc(C2=NOC3C4CCC(C4)C23)cc1 (configuration not stated)	> 100 µM	> 100 µM	> 100 µM	> 100 µM	> 100 µM	> 100 µM	> 100 µM	> 100 µM	–	–	–	–	–	–	–	–	–	–	–	–
CCCC#CCOC(=O)c1cc([N+](=O)[O-])cc([N+](=O)[O-])c1	> 100 µM	> 100 µM	–	> 100 µM	> 100 µM	> 100 µM	> 100 µM	> 100 µM	> 100 µM	> 100 µM	–	–	–	–	–	–	–	–	–	–
CCCCCSC1C2C(=O)C(Br)=CC13CCNc1c(O)c4c5c(c13)=[N+]2CCC=5C=N4 (configuration not stated)	1.28 µM	6.09 µM	6.32 µM	1.44 µM	–	5.6 µM	6.43 µM	5.67 µM	0.883 µM	7.45 µM	0.419 µM	2.04 µM	0.341 µM	3.15 µM	0.405 µM	2 µM	2.1 µM	3.22 µM	2.56 µM	–
Brc1ccc(C2SCc3nc4ccccc4n32)cc1 (configuration not stated)	19.6 µM	24.3 µM	34.1 µM	17 µM	26.6 µM	30.4 µM	37.7 µM	25.2 µM	–	–	–	–	–	–	–	–	–	–	–	–
O=C(CC1C(=O)Nc2ccccc2S1(=O)=O)Nc1cccc(Cl)c1 (configuration not stated)	32.1 µM	31.5 µM	35.8 µM	29.6 µM	33.1 µM	84 µM	–	26.4 µM	–	–	–	–	–	–	–	–	–	–	–	–
C[n+]1c(/C=C/c2ccc(/C=N/NC(=O)c3ccc(C(=O)N/N=C/c4ccc(/C=C/c5cn6ccccc6[n+]5C)cc4)cc3)cc2)cn2ccccc21	> 100 µM	> 100 µM	–	> 100 µM	> 100 µM	–	> 100 µM	> 100 µM	> 100 µM	> 100 µM	–	–	–	–	–	–	–	–	–	–
Oc1c2c(c(O)c3ccccc13)C1(N=N2)c2ccccc2Oc2ccccc21	17.7 µM	9.15 µM	–	10.8 µM	11.1 µM	27.4 µM	31.4 µM	16.4 µM	13.6 µM	28.5 µM	–	–	–	–	–	–	–	–	–	–
COc1cc2ccc(CC(N)=O)cc2cc1OC	> 100 µM	> 100 µM	> 100 µM	> 100 µM	> 100 µM	> 100 µM	> 100 µM	> 100 µM	–	–	–	–	–	–	–	–	–	–	–	–
COc1ccc(C(=O)OC2C(OC3C(O)COC(O[C@H]4C[C@H]5[C@@H]6CC=C7C[C@@H](O)CC[C@]7(C)[C@H]6CC[C@]5(C)[C@H]4[C@H](C)C(=O)CCC(C)C)C3OC(C)=O)OCC(O)C2O)cc1 (some centres not stated)	3.15 µM	0.628 µM	–	6.88 µM	30 µM	0.0101 µM	0.191 µM	3.86 µM	0.532 µM	0.311 µM	< 0.003 µM	0.023 µM	< 0.003 µM	–	0.0533 µM	< 0.003 µM	< 0.003 µM	< 0.003 µM	< 0.003 µM	1.02 µM
COC1=CC(=O)NCCN1	> 100 µM	> 100 µM	> 100 µM	> 100 µM	> 100 µM	> 100 µM	> 100 µM	> 100 µM	–	–	–	–	–	–	–	–	–	–	–	–
CN1C(=O)C(=CN(C)c2ccccc2)C(=O)N(C)C1=O	> 100 µM	> 100 µM	> 100 µM	> 100 µM	> 100 µM	> 100 µM	–	> 100 µM	–	–	–	–	–	–	–	–	–	–	–	–
CC(=O)NC1=C(Sc2ccc(Cl)cc2)C(=O)c2ccccc2C1=O	–	19.1 µM	24.2 µM	7.07 µM	6.77 µM	16 µM	29.1 µM	14.9 µM	5.01 µM	11.7 µM	–	–	–	–	–	–	–	–	–	–
O=S(=O)(NCCO)c1cc[c]([Sb](=[O])([OH])[OH])cc1	> 100 µM	> 100 µM	> 100 µM	> 100 µM	> 100 µM	> 100 µM	–	> 100 µM	–	> 100 µM	> 100 µM	> 100 µM	–	> 100 µM	> 100 µM	> 100 µM	> 100 µM	–	> 100 µM	> 100 µM
Cc1cnc(SCCN2CCN(C)CC2)nc1-c1cc2ccccc2s1	26.8 µM	24.7 µM	25.3 µM	24.6 µM	25.8 µM	30.9 µM	13.8 µM	21.7 µM	–	–	–	–	–	–	–	–	–	–	–	–
COc1cc2c(cc1OC)[C@@H]([C@H](O)c1ccccc1)NCC2	> 100 µM	> 100 µM	> 100 µM	> 100 µM	> 100 µM	> 100 µM	> 100 µM	> 100 µM	–	–	–	–	–	–	–	–	–	–	–	–
Cc1cc(NS(=O)(=O)c2ccc(Nc3c4ccccc4nc4c(C(=O)Nc5ccc(S(=O)(=O)N=C(N)N)cc5)ccc(Cl)c34)cc2)no1	> 100 µM	–	97.8 µM	63.2 µM	38.5 µM	–	95.4 µM	> 100 µM	–	–	–	–	–	–	–	–	–	–	–	–
COc1ccc2c(c1)CCN1C3=C(CCC3)C(=O)C[C@@H]21	> 100 µM	> 100 µM	> 100 µM	> 100 µM	> 100 µM	> 100 µM	> 100 µM	> 100 µM	–	–	–	–	–	–	–	–	–	–	–	–
